In publication PMC4051601, “Identification of NAD(P)H Quinone Oxidoreductase Activity in Azoreductases from P. aeruginosa: Azoreductases and NAD(P)H Quinone Oxidoreductases Belong to the Same FMN-Dependent Superfamily of Enzymes” (PLoS ONE, 2014):

Assays:
paAzoR1 (PA0785) [1] = biological target: T1, paAzoR1 (PA0785) (Pseudomonas aeruginosa, UniProt Q9I5F3); test: X-ray crystallography, […] A; type: binding
T1 construct: gene azoR1; pure recombinant protein, expressed and purified as described previously; dimer with FMN
T1 sequence (Q9I5F3 1-212): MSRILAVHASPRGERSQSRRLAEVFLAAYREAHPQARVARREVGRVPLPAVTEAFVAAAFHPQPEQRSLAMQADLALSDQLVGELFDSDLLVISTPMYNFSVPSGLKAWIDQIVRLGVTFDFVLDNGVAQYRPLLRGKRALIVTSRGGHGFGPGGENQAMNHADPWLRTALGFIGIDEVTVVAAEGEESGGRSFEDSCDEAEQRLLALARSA

paAzoR1 (PA0785) [2] = biological target: T1, paAzoR1 (PA0785); test: NADPH oxidation at […] nm; type: biochemical; conditions: 50 uM quinone, 500 uM NADPH, 20 mM Tris-HCl pH 8, 100 mM NaCl, 5% DMSO; only a specific rate given
paAzoR3 (PA3223) = biological target: T2, paAzoR3 (PA3223) (Pseudomonas aeruginosa, UniProt Q9HZ17); test: NADH oxidation at […] nm; type: biochemical; conditions: 50 uM quinone, 500 uM NADH, 20 mM Tris-HCl pH 8, 100 mM NaCl, 5% DMSO; only a specific rate given
T2 construct: gene azoR3; pure recombinant protein, expressed and purified as described previously
T2 sequence (Q9HZ17 1-213): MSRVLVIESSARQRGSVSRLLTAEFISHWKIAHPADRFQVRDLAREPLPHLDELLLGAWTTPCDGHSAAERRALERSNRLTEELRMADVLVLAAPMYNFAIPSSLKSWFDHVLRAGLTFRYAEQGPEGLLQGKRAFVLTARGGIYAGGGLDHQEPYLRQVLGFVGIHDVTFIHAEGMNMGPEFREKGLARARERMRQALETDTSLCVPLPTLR

paAzoR1 (PA0785) [3] = biological target: T1, paAzoR1 (PA0785); test: X-ray crystallography, […] A; type: binding; conditions: FMN-bound enzyme; one of two active sites; occupancy 0.5; hydrogen bond to Tyr131; co-crystallised with 2 mM ligand, pH 8

O=C1c2ccccc2C(=O)c2cc(S(=O)(=O)O)ccc21 [AQN, anthraquinone-2-sulphonate]
X-ray crystallography, 1.8 A (paAzoR1 (PA0785) [1]; FMN-bound enzyme, one of two active sites, pi-stacking on FMN, co-crystallised with 2 mM ligand, pH 8): structures of paAzoR1 bound to two quinone substrates (UQ1 and AQN) have been solved

O=C1C=CC(=O)C=C1 [Bzq, Benzoquinone]
NADPH oxidation at 340 nm (paAzoR1 (PA0785) [2]): paAzoR1 has a preference for benzoquinones e.g. Bzq (Fig. 3a)

Cc1cc2nc3c(=O)[nH]c(=O)nc-3n(C[C@H](O)[C@H](O)[C@H](O)COP(=O)(O)O)c2cc1C [FMN]
X-ray crystallography, 1.8 A (paAzoR1 (PA0785) [1]; structure with AQN, FMN also seen in the UQ1 complex (4N9Q)): AQN also forms π-π stacking interactions with the central ring of FMN

CC1=CC(=O)c2c(O)cccc2C1=O [Plu, Plumbagin]
NADH oxidation at 340 nm (paAzoR3 (PA3223)): paAzoR3 prefers naphthoquinones e.g. Plu (Fig. 3c)

COC1=C(OC)C(=O)C(CC=C(C)C)=C(C)C1=O [UQ1, Coenzyme Q1]
X-ray crystallography, 2.0 A (paAzoR1 (PA0785) [3]): structures of paAzoR1 bound to two quinone substrates (UQ1 and AQN) have been solved
